From US20250066318A1, “HETEROCYCLIC COMPOUNDS AS DYRK1A INHIBITORS” (Prothena Biosciences Limited, priority 2021, published 2025) come the findings set out here.

Molecules are shown by their SMILES. Bounds are passed on as bounds.

The target of the test is DYRK1A (Homo sapiens (Human), UniProt Q13627). The test is described as follows: DYRK1A Inhibition Assay. It counts as biochemical. The note with it: Selected Compounds of Formula (I); DYRK1A 1 nM, ATP 20 μM, Ser/Thr 18 peptide 2 μM, 90 minutes; read-out: DYRK1 IC50. The protocol:
DYRK1A—Invitrogen #PV4105
Ser/Thr 18 peptide—Invitrogen #PR8227U Phos-Ser/Thr 18 peptide—Invitrogen #PR8229U Assay plate—PerkinElmer #6007279
Development reagent A—Invitrogen #PR5194B Development buffer—Invitrogen #PR4876B
1. Test compounds were diluted to 1 mM in DMSO 2. Stock was further diluted 3-fold using Echo platform 3. 100 nL of DMSO into Columns 1 and 24 and 100 nL of compounds dilutions to Columns 2-23 in a plate.
1. Add 5 μL enzyme & substrate mixture to each well in Column 2-23 and A24-H24 wells of the 384-well assay plate; 2. Add 5 μL 0% Phosphorylation control to A1-H1 and I24-P24 wells of the assay plate; 3. Add 5 μL 100% Phosphorylation control to I1-P1 wells of the assay plate; 4. Spin the assay plate (1000 rpm, 1 minute @23° C.); 5. Incubate enzyme with compounds for 15 minutes at 23° C.; 6. Add 5 μL ATP solution to each well of the assay plate; 7. Spin the plate (1000 rpm, 1 minute @23° C.); 8. Incubate the assay plate for 90 minutes at 23° C.; 9. Add 10 μL Development reagent A to each well of the assay plate; 10. Centrifuge the plate at 1000 rpm about 15 seconds and seal a film over assay plate. Incubate the assay plate for 30 minutes at 23° C. 11. Read assay plates on Envision (see Tables A, B, and C).
Final Compound Concentrations
Assay buffer: 50 mM Hepes pH7.5, 10 mM MgCl2, 1 mM EDTA, 0.01% Brij-35
Ser/Thr 18 peptide: 2 μM Reaction time: 90 minutes
By IC50 is commonly meant the concentration that inhibits the measured activity by half. Turning to `CC(C)(O)C#Cc1ncc(-c2ccc3cncc(CN4CCC(C(=O)O)CC4)c3c2)s1` [Compound 109], the IC50 was greater than 1000 nM.
The result for `O=C(O)[C@H]1C[C@H](Nc2ncc(-c3ccc4cnccc4c3)s2)C1` [Compound 72] reads no more than 10 nM.
The result for `O=C(O)C1CCN(Cc2cncc3ccc(-c4cnc(C#CC5CCOCC5)s4)cc23)CC1` [Compound 91] reads 100 to 1000 nM.
In the case of `CN1CC(OC(=O)Nc2cc3cc(-c4cnn(C)c4)ccc3cn2)C1` [Compound 84] it was no more than 10 nM.
